For experiment [1], the target named is T1, WDR5 (Homo sapiens, UniProt P61964). Put plainly: Competition-based fluorescence polarization anisotropy (FPA) assay. Particulars: FITC small molecule probe. The class given is binding. As to the method:
(Thomas, […], et al, Molecular Cell 2015 (58): 440-452). Fluorescence polarization measurements were performed in 384-well plates (Greiner Bio One) using a Cytation 3 plate reader (BioTek). […] […] The assay buffer contained 200 mM phosphate, 300 mM NaCl, and 0.5 mM TCEP and 0.1% Chaps at pH 6.0. Compounds were serially diluted in assay buffer at a top concentration sufficient to yield a 9-point dose-response curve.

The target in experiment [2] is T1, WDR5. Put plainly: ChIP for WDR5 binding to chromatin. The class given is cell-based. The settings on record: HEK293 cells, 20 μM, 10 h. As to the method:
(§1) HEK293 cells expressing HA-tagged MYC and GFP were plated in growth media. Upon reaching approximately 70% confluence, cells were washed once with PBS then treated for 10 h with 20 μM compound in OptiMEM media. Cells were cross linked at room temperature in PBS containing 1% Formaldehyde for 10 minutes, then cells were scraped into 1.5 mL PBS supplemented with 125 mM Glycine. Cells were collected by centrifugation, washed once with PBS+125 mM Glycine, and pellets stored frozen. Chromatin was prepared by lysing cells at 80×10^6 per mL in ChIP Lysis Buffer (50 mM Tris pH 8.0, 140 mM NaCl, 1 mM EDTA, 1% Triton, 1% SDS and supplemented with protease inhibitor cocktail), Samples were sonicated (BioRuptor) for 30 minutes and cleared by centrifugation. Precipitation was performed essentially as described [Thomas L R 2015 Mol Cell] by diluting chromatin 1:9 in ChIP buffer without SDS. Decrosslinked DNA was diluted to 500 μL with water and 7.5 μL was used for each qPCR reaction. Percent input was calculated by comparison to a 30-fold dilution of decrosslinked chromatin. Primers used for ChIP have been described in Thomas, L. R.; Adams, C. M.; Wang, J.; Weissmiller, A. M.; Creighton, J.; Lorey, S. L.; Liu, Q.; Fesik, S. W.; Eischen, C. M.; Tansey, W. P. Interaction of the Oncoprotein Transcription Factor MYC with its Chromatin Cofactor WDR5 is Essential for Tumor Maintenance. […]

Experiment [3] deals with MYC. Put plainly: ChIP: disruption of binding of MYC to chromatin. Type of experiment: cell-based. Particulars: HEK293 cells expressing HA-tagged MYC, 20 μM, 10 h. The method, then: as §1

With `O=S(=O)(Nc1cn(C2CCCC2)cn1)c1cc(Br)cc(Cl)c1O` [Example 1, 5-Bromo-3-chloro-N-(1-cyclopentyl-1H-imidazol-4-yl)-2-hydroxybenzenesulfonamide], the inhibition constant Ki in experiment [1] was determined as 160 nM.
For `O=S(=O)(Nc1cn(CC2CC2)cn1)c1cc(Br)cc(Cl)c1O` [Example 5, 5-Bromo-3-chloro-N-(1-(cyclopropylmethyl)-1H-imidazol-4-yl)-2-hydroxybenzenesulfonamide], the Ki in experiment [1] was found to be 820 nM.
On to `O=S(=O)(Nc1cn(CC2CCCO2)cn1)c1cc(Br)cc(Cl)c1O` (centres unmarked) [Example 15, 5-Bromo-3-chloro-2-hydroxy-N-(1-((tetrahydrofuran-2-yl)methyl)-1H-imidazol-4-yl)benzenesulfonamide], for which the inhibition constant (Ki) in experiment [1] was found to be 4030 nM.
In experiment [1], `O=S(=O)(Nc1cn(CC2CCCO2)cn1)c1cc(Br)ccc1O` (centres unmarked) [Example 16, 5-Bromo-2-hydroxy-N-(1-((tetrahydrofuran-2-yl)methyl)-1H-imidazol-4-yl)benzenesulfonamide] displayed a Ki of 19200 nM.
Still for that read-out and setting: to `Cc1nc(NS(=O)(=O)c2cc(Br)cc(Cl)c2O)cn1C1CCC1` [Example 17, 5-Bromo-3-chloro-N-(1-cyclobutyl-2-methyl-1-imidazol-4-yl)-2-hydroxybenzenesulfonamide] belongs 660 nM; to `O=S(=O)(Nc1cn(C(C2CC2)C2CC2)cn1)c1cc(Br)cc(Cl)c1O` [Example 18, 5-Bromo-3-chloro-N-(1-(dicyclopropylmethyl)-1-imidazol-4-yl)-2-hydroxybenzenesulfonamide], 970 nM.
Consider `CS(=O)(=O)c1nc(NS(=O)(=O)c2cc(Br)cc(Cl)c2O)cn1C1CCCC1` [Example 26, 5-Bromo-3-chloro-N-(1-cyclopentyl-2-(methylsulfonyl)-1H-imidazol-4-yl)-2-hydroxybenzenesulfonamide], for which the “WDR5 levels at these loci (ChIP for WDR5) versus negative control compound” value in experiment [2] is on record as “comparable levels”. Also, in experiment [3], the “amount of MYC at ZFPM1 and ZMF771 (MYC binding independent of WDR5)” value is “nearly unaffected”; the “amount of MYC at loci where MYC recruitment is dependent on WDR5 (C7orf40, RNPS1, RPS14, and RPL5)” value is reported as “reduction”.
As to `O=S(=O)(Nc1cn(C2CCNC2)cn1)c1cc(Br)cc(Cl)c1O` (centres unmarked) [Example 31, 5-Bromo-3-chloro-2-hydroxy-N-(1-(pyrrolidin-3-yl)-1H-imidazol-4-yl)benzenesulfonamide], affinity in experiment [1] was put at a Ki of 10300 nM.
Take `O=S(=O)(Nc1cc(-c2ccccc2)[nH]n1)c1cc(Br)cc(Cl)c1O` [Example 35, 5-Bromo-3-chloro-2-hydroxy-N-(5-phenyl-1H-pyrazol-3-yl)benzenesulfonamide]: the affinity in experiment [1] corresponds to a Ki of 1100 nM.
`O=S(=O)(Nc1nc2ccccc2s1)c1cc(Br)cc(Cl)c1O` [Example 37, N-(Benzo[d]thiazol-2-yl)-5-bromo-3-chloro-2-hydroxybenzenesulfonamide] registered a Ki in experiment [1] of 120 nM.
Still for that read-out and setting: with `O=S(=O)(Nc1nc2ccc(OC(F)(F)F)cc2s1)c1cc(Br)cc(Cl)c1O` [Example 40, 5-Bromo-3-chloro-2-hydroxy-N-(6-(trifluoromethoxy)benzo[d]thiazol-2-yl)benzenesulfonamide] the figure was 3900 nM; with `O=C(c1nc(NS(=O)(=O)c2cc(Br)cc(Cl)c2O)cn1C1CCCC1)N1CCC(C2CCNC2)CC1` (centres unmarked) [Example 54, 5-Bromo-3-chloro-N-(1-cyclopentyl-2-(4-(pyrrolidin-3-yl)piperidine-1-carbonyl)-1H-imidazol-4-yl)-2-hydroxybenzenesulfonamide], 990 nM.

In general, Ki refers to the dissociation constant of the complex between target and ligand, obtained from inhibition or displacement. Low readings indicate tighter binding, high ones weaker binding.

Source of the values: patent US12545649B2, “WDR5-MYC inhibitors” (Vanderbilt University, priority 2019, dated 2026).
